Data published in ChEMBL document CHEMBL4613241, “Disulfide Cleavage in a Dimeric Epipolythiodioxopiperazine Natural Product Diminishes Its Apoptosis-Inducing Effect but Enhances Autophagy in Tumor Cells” (2020).
Active and inactive are the calls of the source. The rule behind the calls is not given here.

Assays:
HeLa = assay: Antiproliferative activity against human HeLa cells assessed as reduction in cell viability by MTS assay; type: functional, cell-based
T-24 [1] = assay: Antiproliferative activity against human T24 cells assessed as reduction in cell viability by MTS assay; type: functional, cell-based
HCT-116 [2] = assay: Antiproliferative activity against human HCT116 cells assessed as reduction in cell viability by MTS assay; type: functional, cell-based
SW480 = assay: Antiproliferative activity against human SW480 cells assessed as reduction in cell viability by MTS assay; type: functional, cell-based
HepG2 [3] = assay: Antiproliferative activity against human HepG2 cells assessed as reduction in cell viability at 5 uM by MTS assay; type: functional, cell-based; settings: TDE = time-dependent effect
ACHN [4] = assay: Antiproliferative activity against human ACHN cells assessed as reduction in cell viability at 5 uM measured up to 72 hrs by MTS assay; type: functional, cell-based
HepG2 [5] = assay: Inhibition of colony formation in human HepG2 at 1 to 5 uM after 2 weeks by trypan blue staining based assay; type: functional, cell-based
T-24 [6] = assay: Induction of apoptosis in human T24 cells assessed as increase in cleaved PARP1 level at 5 uM after 12 hrs by Western blot analysis; type: functional, cell-based
HepG2 [7] = assay: Induction of autophagy in human HepG2 cells assessed as increase in formation of autophagosomes at 0.5 uM after 2 to 48 hrs by TEM analysis; type: functional, cell-based
T-24 [8] = assay: Induction of autophagy in human T24 cells assessed as increase in ratio of LC3-2 to total Erk1/2 protein level at 0.5 uM after 12 hrs by Western blot analysis; type: functional, cell-based
HepG2 [9] = assay: Induction of autophagy in human HepG2 cells assessed as ratio of LC3-2 to total Erk1/2 protein level at 0.5 uM after 12 hrs by Western blot analysis (reference value: 1); type: functional
HepG2 [10] = assay: Induction of autophagy in human HepG2 cells assessed as accumulation of LC3-2 protein level at 0.5 uM after 12 hrs in presence of CQ by Western blot analysis relative to CQ; type: functional
[11] = molecular target: Serine/threonine-protein kinase mTOR (Homo sapiens) (UniProt P42345); assay: Inhibition of mTOR phosphorylation at S2448 residue in human HepG2 cells assessed as ratio of phosphorylated mTOR to total mTOR level at 0.5 uM after 4 hrs by Western blot analysis (reference value: 1); type: cell-based
[12] = molecular target: RAC-alpha serine/threonine-protein kinase (Homo sapiens) (UniProt P31749); assay: Inhibition of AKT phosphorylation at S473 residue in human HepG2 cells assessed as ratio of phosphorylated Akt to total Akt level at 0.5 uM after 4 hrs by Western blot analysis (reference value: 1); type: cell-based
HepG2 [13] = assay: Activation of AMPKalpha in human HepG2 cells assessed as ratio of phosphorylated AMPKalpha at T172 residue to total ERK level at 0.5 uM incubated for 4 hrs by Western blot analysis (reference value: 1); type: cell-based
HepG2 [14] = assay: Activation of AMPKalpha in human HepG2 cells assessed as ratio of ACCalpha phosphorylation at S79 residue to total ERK level at 0.5 uM incubated for 4 hrs by Western blot analysis (reference value: 1); type: cell-based
HepG2 [15] = assay: Induction of autophagy in human HepG2 cells assessed as ratio of LC3-2 level to total Erk1/2 protein level at 0.5 uM after 4 hrs in presence of CC by Western blot analysis (reference value: 1.3); type: functional
HepG2 [16] = assay: Activation of AMPKalpha in human HepG2 cells assessed as ratio of phosphorylated AMPKalpha at T172 residue to total ERK level at 0.5 uM incubated for 4 hrs in presence of CC by Western blot analysis relative to CC; type: cell-based
HepG2 [17] = assay: Induction of autophagy in human HepG2 cells assessed as ratio of PFKFB3 expression to total ERK level after 2 hrs by Western blot analysis (reference value: 1); type: functional
HepG2 [18] = assay: Induction of autophagy in human HepG2 cells assessed as ratio of HK2 expression to total ERK level after 2 hrs by Western blot analysis (reference value: 1); type: functional
HepG2 [19] = assay: Induction of autophagy in human HepG2 cells assessed as ratio of LC3-2 level to total ERK level at 0.5 uM after 2 hrs by Western blot analysis (reference value: 1); type: functional
HepG2 [20] = assay: Induction of autophagy in human HepG2 cells assessed as ratio of LC3-2 level to total ERK level at 0.5 uM after 2 hrs in presence of 2-DG by Western blot analysis (reference value: 1.1); type: functional
HepG2 [21] = assay: Induction of autophagy in human HepG2 cells assessed as ratio of LC3-2 level to total ERK level at 0.5 uM after 2 hrs in presence of PFK15 by Western blot analysis (reference value: 1.1); type: functional
HepG2 [22] = assay: Induction of autophagy in human HepG2 cells assessed as ratio of LC3-2 level to total ERK level at 0.5 uM after 2 hrs in presence of PFK15 and CQ by Western blot analysis relative to PFK15; type: functional
HepG2 [23] = assay: Induction of autophagy in human HepG2 cells assessed as ratio of LC3-2 level to total ERK level at 0.5 uM after 2 hrs in presence of PFKFB3 siRNA by Western blot analysis (reference value: 0.8); type: functional
HepG2 [24] = assay: Induction of autophagy in human HepG2 cells assessed as ratio of LC3-2 level to total ERK level at 0.5 uM after 2 hrs in presence of HK2 siRNA by Western blot analysis (reference value: 3.1); type: functional
HepG2 [25] = assay: Induction of autophagy in human HepG2 cells assessed as ratio of LC3-2 level to total ERK level at 0.5 uM after 2 hrs in presence of HK2 siRNA and CQ by Western blot analysis (reference value: 3.1); type: functional
HepG2 [26] = assay: Induction of autophagy in human HepG2 cells assessed as ratio of LC3-2 level to total ERK level at 0.5 uM after 2 hrs in presence of HK2 siRNA and CQ by Western blot analysis relative to HK2 siRNA; type: functional
HepG2 [27] = assay: Antiproliferative activity against human HepG2 cells assessed as reduction in cell viability at 0.5 uM by MTS assay; type: functional, cell-based; settings: TDE = time-dependent effect
ACHN [28] = assay: Antiproliferative activity against human ACHN cells assessed as reduction in cell viability at 0.5 uM measured up to 72 hrs by MTS assay; type: functional, cell-based
HepG2 [29] = assay: Inhibition of colony formation in human HepG2 at 0.1 uM after 2 weeks by trypan blue staining based assay relative to control; type: functional; settings: HepG2, 336 h
HCT-116 [30] = assay: Inhibition of colony formation in human HCT116 at 0.1 uM after 2 weeks by trypan blue staining based assay relative to control; type: functional; settings: HCT-116, 336 h
HepG2 [31] = assay: Induction of apoptosis in human HepG2 cells assessed as increase in cleaved PARP level by measuring ratio of cleaved PARP to total PARP level at 1 uM after 12 hrs by Western blot analysis; type: functional
HepG2 [32] = assay: Induction of apoptosis in human HepG2 cells assessed as increase in cleaved PARP level by measuring ratio of cleaved PARP to total PARP level at 2 uM after 12 hrs by Western blot analysis; type: functional

RAC-alpha serine/threonine-protein kinase (Homo sapiens), sequence (P31749 whole entry): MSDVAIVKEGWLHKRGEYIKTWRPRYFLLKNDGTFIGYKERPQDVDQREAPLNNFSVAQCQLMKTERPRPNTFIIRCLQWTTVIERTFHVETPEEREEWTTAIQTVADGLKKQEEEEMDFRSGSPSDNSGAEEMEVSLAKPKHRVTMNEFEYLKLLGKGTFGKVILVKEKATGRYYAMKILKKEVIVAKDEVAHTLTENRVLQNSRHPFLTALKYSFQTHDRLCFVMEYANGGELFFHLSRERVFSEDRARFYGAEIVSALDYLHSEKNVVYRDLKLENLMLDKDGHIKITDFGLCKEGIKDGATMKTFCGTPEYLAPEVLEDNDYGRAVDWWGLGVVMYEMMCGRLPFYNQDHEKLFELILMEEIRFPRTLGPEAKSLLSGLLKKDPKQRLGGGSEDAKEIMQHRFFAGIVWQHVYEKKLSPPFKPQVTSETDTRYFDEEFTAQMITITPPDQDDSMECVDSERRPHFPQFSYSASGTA

What does the source list for `CCC1(SC)C(=O)N2[C@H]3N(C)c4ccccc4C3(C34c5ccccc5N(C)[C@@H]3N3C(=O)C(SC)([C@@H](C)O)N(C)C(=O)C3(SC)[C@H]4O)[C@H](O)C2(SC)C(=O)N1C` (stereo not given in full)?
Activity (HeLa): Active; Activity (T-24 [1]): Active; Activity (HCT-116 [2]): Active; Activity (SW480): Active; Activity (HepG2 [3]): Tde; Activity (ACHN [4]): Active; inhibition (HepG2 [5]): Active; Activity (T-24 [6]): inactive; Activity (HepG2 [7]): Active; Activity (T-24 [8]): Active; Ratio (HepG2 [9]): 1.2; fold change (FC) (HepG2 [10]): 3.6; Ratio [11]: 2.2; Ratio [12]: 1.4; Ratio (HepG2 [13]): 1.4; Ratio (HepG2 [14]): 1.7; Ratio (HepG2 [15]): 0.7; fold change (FC) (HepG2 [16]): 0.6; Ratio (HepG2 [17]): 0.6; Ratio (HepG2 [18]): 0.6; Ratio (HepG2 [19]): 1.6; Ratio (HepG2 [20]): 1; Ratio (HepG2 [21]): 1.6; fold change (FC) (HepG2 [22]): 2.4; Ratio (HepG2 [23]): 1; Ratio (HepG2 [24]): 1.1; Ratio (HepG2 [25]): 7.2; fold change (FC) (HepG2 [26]): 6.6

Which results are given for `CC[C@@]12SS[C@]3(C(=O)N1C)[C@@H](O)C1(C45c6ccccc6N[C@@H]4N4C(=O)[C@]6([C@@H](C)O)SS[C@]4(C(=O)N6C)[C@H]5O)c4ccccc4N[C@@H]1N3C2=O` (stereo not given in full)?
Activity (HeLa): Active; Activity (T-24 [1]): Active; Activity (HCT-116 [2]): Active; Activity (SW480): Active; Activity (HepG2 [27]): Tde; Activity (ACHN [28]): Active; inhibition at 0.1 µM (HepG2 [29]): 100%; inhibition at 0.1 µM (HCT-116 [30]): 100%; Activity (T-24 [8]): Active; Ratio (HepG2 [31]): 1; Ratio (HepG2 [32]): 1.7; Ratio (HepG2 [9]): 1.3; fold change (FC) (HepG2 [10]): 3.2; Ratio [11]: 1.8; Ratio [12]: 1.4; Ratio (HepG2 [13]): 1.2; Ratio (HepG2 [14]): 1.4; fold change (FC) (HepG2 [16]): 0.8; Ratio (HepG2 [17]): 0.7; Ratio (HepG2 [18]): 0.8; Ratio (HepG2 [19]): 1.5; Ratio (HepG2 [21]): 1.3; fold change (FC) (HepG2 [22]): 3.4; Ratio (HepG2 [23]): 0.9; Ratio (HepG2 [24]): 1.6; Ratio (HepG2 [25]): 4.7; fold change (FC) (HepG2 [26]): 2.8
